# Measured values from patent publication US10160705B2, “Class of HDAC inhibitors expands the renal progenitor cells population and improves the rate of recovery from acute kidney injury” (University of Pittsburgh—Of the Commonwealth System of …, priority 2011, dated 2018).
# Like-named read-outs stand apart in the source and are kept apart here.
# Experiments:
# human HDACs = test: Fluorescence histone deacetylation assay with HeLa cell nuclear extract; format: biochemical
# Description: To evaluate this in vitro, the deacetylation of a fluorescent peptide substrate was measured in the presence of human HDACs.
# In vitro HDAC activity assays were performed using a fluorescence HDAC assay kit (Active Motif) according to the manufacturer's instructions. For maintaining compound solubility at 5 mM, the final DMSO concentration in all assay wells was increased to 5%. Fluorescence was detected using an M5 Plate Reader ([…])
# [1] = test system: mesodermal markers myod1, fli1a, and ntla; test: In situ hybridization for the mesodermal markers myod1, fli1a and ntla in 10-somite embryos; format: in vivo, zebrafish
# Description: (§1) PTBA was synthesized as described below. Hydroxyurea and aphidicolin were obtained from Sigma-Aldrich.
# (§2) In situ hybridization and immunocytochemistry: In situ hybridization was performed as previously described with some modifications.142 Hybridization temperature was 65° C. Embryos were blocked in 2% blocking reagent (Roche) with 5% sheep serum in MAB (100 mM maleic acid and 150 mM NaCl [pH 7.5]). Whole-mount immunocytochemistry with 1:25 mouse anti-α6F antibody (Developmental Studies Hybridoma Bank) and 1:100 Cy3 secondary antibody (Jackson ImmunoResearch) was performed as described previously.108 Embryos were embedded in JB-4 for sectioning per the manufacturer's instructions (Polysciences), sectioned at 5 μm, and mounted with Cytoseal 60 (Richard-Allan Scientific).
# histone H4 = test: Histone H4 hyperacetylation Western blot in treated embryos; format: in vivo, zebrafish; conditions: 24 hpf embryos, 6 hours; 3 μM PTBA, 25 μM PBA, 200 nM TSA
# Description: It was next determined whether the HDACi function of PTBA was quantifiable in vivo. 24 hpf embryos were treated with 3 μM PTBA, 25 μM PBA, or 200 nM TSA for 6 hours. Protein extracts were prepared and immunoblotted with an anti-hyperacetylated histone H4 antibody. […] Furthermore, increasing the compound concentration caused a corresponding increase in hyperacetylation (FIG. 21).
# SDS-PAGE and Western blotting were performed as described previously with some modifications (Noel, E. S. et al. Organ-specific requirements for Hdac1 in liver and pancreas formation. Dev Biol 322, 237-250, (2008)). Proteins were separated on 18% SDS-PAGE gels. Membranes were incubated at 4° C. overnight with 1:1000 anti-hyperacetylated histone H4 antibody (06-946, Millipore) or 1:1000 anti-α-tubulin antibody (Sigma-Aldrich) in PBT containing 5% nonfat milk.
# renal progenitor cells = test: In situ hybridization for lhx1a expression in 10-somite embryos (renal progenitor cell expansion); format: in vivo; conditions: for Lhx1a expansion caused by analog treatment, 800 nM: 800 nM from 2 hpf; for responders at 0.8 µM: read-out: Expansion of Cells (including repeats* and recounts**) 800 nM; for Lhx1a expansion caused by analog treatment, 100 nM: key: effective (+); partially effective (+/−); ineffective (−); Analogs that killed all embryos at a given concentration before reaching 10 somites are listed as XX; for Lhx1a expansion caused by analog treatment, 200 nM: key: effective (+); partially effective (+/−); ineffective (−); Analogs that killed all embryos at a given concentration before reaching 10 somites are listed as XX; for Lhx1a expansion caused by analog treatment, 3 μM: key: effective (+); partially effective (+/−); ineffective (−); Analogs that killed all embryos at a given concentration before reaching 10 somites are listed as XX; for Lhx1a expansion caused by analog treatment, 800 nM: key: effective (+); partially effective (+/−); ineffective (−); Analogs that killed all embryos at a given concentration before reaching 10 somites are listed as XX
# Outline: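 Zebrafish embryos treated with compound, then colorimetric whole-mount in situ hybridization (65° C) for lhx1a mRNA at 10 somites. Embryos with expanded kidney field counted manually as percent of total. EC50 taken as 50% point of percent-expansion trendline; compounds also classed effective, partial or ineffective versus PTBA at matched concentration.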
# zebrafish embryos = test: Phenotypic screen for edema and survival in zebrafish larvae at 72 hpf; conditions: for Dead / Edemic 1 (E1) / Edemic 2 (E2) / Edemic 3 (E3) / Wild-type (WT): number of larvae (of 36), 3 μM from 2 hpf, scored at 72 hpf; for phenotype in initial chemical screen: 10 μM, larvae at 72 hpf
# Description: The screen was performed in zebrafish embryos using the National Cancer Institute's Developmental Therapeutics Program (NCI/DTP) Diversity Set I. This library contains 1990 compounds selected by pharmacophore modeling to represent the more than 140,000 small molecules maintained in the NCI/DTP Open Repository. Compounds from the NCI/DTP Diversity Set I were diluted to 10 μM in E3 embryo medium (5 mM NaCl, 0.33 mM CaCl2, 0.33 mM MgSO4, and 0.17 mM KCl) in a final DMSO concentration of 0.5% and arrayed in 96-well plates. Beginning at approximately 2 hpf, embryos were transferred to each well in groups of five using a glass pipette. The plates were incubated at 28.5° C. for 70 hours. Individual wells were then scored for a dominant phenotype, representative of at least four of the five embryos. The primary objective was to identify compounds that caused edema in treated embryos at 72 hpf. Small molecules generating edema were retested once for verification, before obtaining additional compound from the NCI/DTP Open Repository.
# PTBA was synthesized as described below. Hydroxyurea and aphidicolin were obtained from Sigma-Aldrich. Groups of 20 to 30 chorionated 2 hpf embryos were arrayed in individual wells of 12-well plates. E3 medium was removed with a glass pipette and replaced with 1.5 ml treatment solutions containing 0.5% DMSO in E3 with or without compound at the reported concentrations. Treatments for all studies were initiated at 2 hpf, except for the temporal studies (FIG. 6) and the HUA studies (FIG. 11). HUA studies were performed as described previously (Zhang, L., et al. Cell cycle progression is required for zebrafish somite morphogenesis but not segmentation clock function. Development 135, 2065-2070, (2008)), with the following modifications. HUA in 0.5% DMSO was added at early gastrulation (5 hpf) and PTBA was subsequently added at late gastrulation (8 hpf) to allow for penetration of the proliferation inhibitors. All embryos were incubated at 28.5° C. until the required developmental stage.
# Following 70 hours of treatment (as described above), edemic phenotypes in 72 hpf larvae were scored using a phenotype-based classification system. Wild type: no visible edema or developmental delay. […] Significant effects (p<0.05) on survival were determined by two-tailed Fisher's exact test in comparison with the 0 μM PTBA treatment group.
# PTBA and methyl-4-(phenylthio)butanoate were synthesized as described above. 4-(Naphthalen-2-ylthio)butanoic acid (NSC2733) and 3-(phenylthio)benzoic acid (NSC113994), were obtained from the NCI/DTP Open Repository. APHA compound 8, Apicidin, butanoic acid, PBA, 4-phenoxybutanoic acid, 5-phenylpentanoic acid, Scriptaid, TSA, and valproic acid were obtained from Sigma-Aldrich. MS-275 and SAHA were obtained from Cayman Chemical Co. 4-(phenylsulfonyl)butanoic acid was obtained from Matrix Scientific. Tubacin was a gift of Dr. Ralph Mazitschek of the Broad Institute (Cambridge, Mass.). The remaining PTBA analogs were synthesized. Three independent groups of 12 chorionated 2 hpf embryos were arrayed in individual wells of 24-well plates. E3 medium was removed with a glass pipette and replaced with 800 μl treatment solutions containing 0.5% DMSO in E3 with or without compound at the reported concentrations.
# Phenotypic screening of PTBA analogs was performed identically to the concentration-response experiments detailed above. Embryos were treated with each PTBA analog from 2 to 72 hpf as described above.
# [2] = cited from earlier work
# kidney field = test: In situ hybridization for kidney markers (pax2a, pax8, cdh17, wt1a, slc4a4, slcl2a1); format: in vivo, zebrafish; conditions: in situ hybridization, data not shown
# Description: as §1, §2
# [3] = 100 nM from 2 hpf, 10-somite embryos
# [4] = 200 nM from 2 hpf, 10-somite embryos
# [5] = 3 μM from 2 hpf, 10-somite embryos
# [6] = 1.5 μM from 2 hpf, 10-somite embryos
# [7] = Danio rerio, 1.5 μM from 2 hpf, 10-somite embryos, read-out: lhx1a expansion, percent of treated embryos
# [8] = Danio rerio, percent of embryos with expanded kidney field, 800 nM
# [9] = Danio rerio, percent of embryos with expanded kidney field, 1.5 μM, read-out: Expansion of Cells (including repeats* and recounts**) 1.5 μM
# [10] = Danio rerio, percent of embryos with expanded kidney field, 3 μM, read-out: Expansion of Cells (including repeats* and recounts**) 3 μM
# [11] = Danio rerio, 3 μM from 2 hpf, 10-somite embryos, read-out: lhx1a expansion, percent of treated embryos
compound,measurement,setting,value
"CC(/C=C/C(=O)NO)=C\[C@@H](C)C(=O)c1ccc(N(C)C)cc1 [TSA, trichostatin A, reference compound]",HDAC activity,"human HDACs; 1 μM TSA, all input levels of nuclear extract",completely blocked activity
same,"normal ntla expression disrupted, percent of treated embryos",[1]; 200 nM,86%
same,"myod1 expression decreased, percent of treated embryos","[1]; 3 μM PTBA (slightly decreased), 25 μM PBA, 200 nM TSA",100%
same,"fli1a expression decreased, percent of treated embryos","[1]; 25 μM PBA, 200 nM TSA",95%
same,histone H4 hyperacetylation,histone H4,Histone H4 hyperacetylation was observed
same,"Lhx1a expansion caused by analog treatment, 100 nM",renal progenitor cells; [3],+
same,"lhx1a expansion, percent of treated embryos",renal progenitor cells; [3],97%
same,"Lhx1a expansion caused by analog treatment, 200 nM",renal progenitor cells; [4],+
same,"lhx1a expansion, percent of treated embryos",renal progenitor cells; [4],100%
same,lethality before reaching 10 somites,renal progenitor cells; 400 nM,died before reaching 10 somites
same,treated embryos killed,renal progenitor cells; 800 nM,lethal
same,lethality before the 10-somite stage,renal progenitor cells; 1.5 μM,lethal
same,lethality before the 10-somite stage,renal progenitor cells; 3 μM,killed all treated embryos
same,concentration producing an expansion of lhx1a expression consistent with 3 μM PTBA,"renal progenitor cells; concentration-response, 10-somite embryos",200 nM
same,treated 72 hpf larvae killed,zebrafish embryos; 300 nM,greater than 90%
same,larvae with edemic phenotype / pericardial edema by 72 hpf,"zebrafish embryos; 3 μM PTBA, 25 μM PBA, 200 nM TSA",100%
same,death by 72 hpf,"zebrafish embryos; 25 μM PBA, 200 nM TSA, n=90",61%
same,Dead,zebrafish embryos,36
same,Edemic 1 (E1),zebrafish embryos,0
same,Edemic 2 (E2),zebrafish embryos,0
same,Edemic 3 (E3),zebrafish embryos,0
same,Wild-type (WT),zebrafish embryos,0
"O=C(O)CCCS(=O)(=O)c1ccccc1 [PSOBA, 4-(phenylsulfonyl)butanoic acid, reference compound]","HDAC activity elicited by 10 μg HeLa extract, percent of the control value",human HDACs; 5 mM compound,70%
same,"Lhx1a expansion caused by analog treatment, 3 μM",renal progenitor cells; [5],−
same,"lhx1a expansion, percent of treated embryos",renal progenitor cells; [5],no ability to expand renal progenitor cells
same,Dead,zebrafish embryos,0
same,Edemic 1 (E1),zebrafish embryos,0
same,Edemic 2 (E2),zebrafish embryos,0
same,Edemic 3 (E3),zebrafish embryos,0
same,Wild-type (WT),zebrafish embryos,36
O=C(O)CCCc1ccccc1 [Buphenyl],half-life (t1/2),[2]; following administration,~1 h
same,bioavailability,[2]; taken orally,about 80%
N=C(N)c1ccc(N=Nc2c(O)ccc3c2[nH]c2ccccc23)cc1 [NSC357777],size of the kidney field,kidney field,did not affect the size of the kidney field
same,phenotype in initial chemical screen,zebrafish embryos,pericardial edema
N=C(N)SCc1ccc(Cl)cc1Cl.O=[N+]([O-])c1c(O)c(Cl)cc(Cl)c1Cl [NSC35400],size of the kidney field,kidney field,did not affect the size of the kidney field
same,phenotype in initial chemical screen,zebrafish embryos,pericardial edema
COc1ccc(/C=C(\C#N)C(N)=O)c(OC)c1 [NSC134664],size of the kidney field,kidney field,did not affect the size of the kidney field
same,phenotype in initial chemical screen,zebrafish embryos,pericardial edema
"O=C(CCCSc1ccc(Cl)cc1)NO [UPHD-00027, 4-[(4-chloro-phenyl)sulfanyl]-N-hydroxybutanamide]","Lhx1a expansion caused by analog treatment, 800 nM",renal progenitor cells; 10-somite embryos,+/−
same,"Lhx1a expansion caused by analog treatment, 1.5 μM",renal progenitor cells; [6],+
same,"Lhx1a expansion caused by analog treatment, 3 μM",renal progenitor cells; [5],+
same,responders at 1.5 µM,renal progenitor cells; [7],97%
same,responders at 0.8 µM,renal progenitor cells; [8],17%
same,responders at 1.5 µM,renal progenitor cells; [9],97%
same,responders at 3 µM,renal progenitor cells; [10],94%
same,Dead,zebrafish embryos,14
same,Edemic 1 (E1),zebrafish embryos,0
same,Edemic 2 (E2),zebrafish embryos,0
same,Edemic 3 (E3),zebrafish embryos,22
same,Wild-type (WT),zebrafish embryos,0
"Cc1ccc(SCCCC(=O)NO)cc1 [UPHD-00028, N-hydroxy-4-[(4-methyl-phenyl)sulfanyl]butanamide]","Lhx1a expansion caused by analog treatment, 200 nM",renal progenitor cells; [4],−
same,"Lhx1a expansion caused by analog treatment, 400 nM","renal progenitor cells; 400 nM from 2 hpf, 10-somite embryos",−
same,"Lhx1a expansion caused by analog treatment, 800 nM",renal progenitor cells; 10-somite embryos,+
same,"Lhx1a expansion caused by analog treatment, 1.5 μM",renal progenitor cells; [6],+
same,"Lhx1a expansion caused by analog treatment, 3 μM",renal progenitor cells; [5],+
same,responders at 1.5 µM,renal progenitor cells; [7],97%
same,responders at 0.4 µM,"renal progenitor cells; Danio rerio, percent of embryos with expanded kidney field, 400 nM, read-out: Expansion of Cells (including repeats* and recounts**) 400 nM",9%
same,responders at 0.8 µM,renal progenitor cells; [8],61%
same,responders at 1.5 µM,renal progenitor cells; [9],97%
same,responders at 3 µM,renal progenitor cells; [10],100%
same,Expansion of Cells (including repeats* and recounts**) 3 μM,"renal progenitor cells; percent of embryos with expanded kidney field, 3 μM",100%
same,Dead,zebrafish embryos,22
same,Edemic 1 (E1),zebrafish embryos,0
same,Edemic 2 (E2),zebrafish embryos,0
same,Edemic 3 (E3),zebrafish embryos,14
same,Wild-type (WT),zebrafish embryos,0
CC(C)(C)OC(=O)CCCSc1ccccc1 [tert-butyl 4-(phenylthio)butanoate],"Lhx1a expansion caused by analog treatment, 3 μM",renal progenitor cells; [5],+/−
same,responders at 3 µM,renal progenitor cells; [11],25%
same,Dead,zebrafish embryos,0
same,Edemic 1 (E1),zebrafish embryos,3
same,Edemic 2 (E2),zebrafish embryos,0
same,Edemic 3 (E3),zebrafish embryos,0
same,Wild-type (WT),zebrafish embryos,33
"Cn1cc(C(=O)Cc2ccccc2)cc1/C=C/C(=O)NO [APHA compound 8, reference compound]","Lhx1a expansion caused by analog treatment, 3 μM",renal progenitor cells; [5],−
same,Dead,zebrafish embryos,0
same,Edemic 1 (E1),zebrafish embryos,0
same,Edemic 2 (E2),zebrafish embryos,0
same,Edemic 3 (E3),zebrafish embryos,0
same,Wild-type (WT),zebrafish embryos,36
"O=C(CCCCCN1C(=O)c2cccc3cccc(c23)C1=O)NO [Scriptaid, reference compound]","Lhx1a expansion caused by analog treatment, 3 μM",renal progenitor cells; [5],+/−
same,responders at 3 µM,renal progenitor cells; [11],39%
same,Dead,zebrafish embryos,0
same,Edemic 1 (E1),zebrafish embryos,1
same,Edemic 2 (E2),zebrafish embryos,0
same,Edemic 3 (E3),zebrafish embryos,0
same,Wild-type (WT),zebrafish embryos,35
